Where a SMILES comes first, the peptide text is derived from it.
Columns and labels:
[1] = system: WT1- autologous APC; assay: Cr51 release assay, cytotoxic CTL response vs unmodified autologous APC; format: cell-based, human; conditions: 50:1 E:T
[2] = system: WT1 peptide loaded autologous APC; assay: Cr51 release assay, cytotoxic CTL response vs peptide loaded autologous APC; format: cell-based, human; conditions: 50:1 E:T
[3] = system: WT1- allo APC with restricting HLA allele; assay: Cr51 release assay, cytotoxic CTL response vs unloaded allogeneic APC sharing restricting HLA allele; format: cell-based, human; conditions: 50:1 E:T
[4] = system: WT1+ allo APC with restricting HLA allele loaded with WT1 peptide; assay: Cr51 release assay, cytotoxic CTL response vs peptide loaded allogeneic APC sharing restricting HLA allele (HLA restriction); conditions: 50:1 E:T
[5] = system: WT1- leukemia; assay: Cr51 release assay, cytotoxic CTL response vs WT1- leukemia; format: cell-based, human; conditions: HLA allele A0201; 50:1 E:T
Excerpt: (§1) Twenty-four primary leukemic cells and 1 leukemic cell line were characterized for their expression of WT1 by intracellular FACS staining using murine anti-human WT1 monoclonal antibodies (Neomarkers, Fremont, Calif.) as previously described (32,38) The WT1+ leukemias included blast cells from 11 primary AMLs, 3 primary ALLs and 1B-cell precursor ALL cell line. Ten WT1-leukemias, were used as controls, and included 3 B-cell precursor ALLs and 7 AMLs.

[6] = system: WT1+ leukemia; assay: Cr51 release assay, cytotoxic CTL response vs WT1+ leukemia expressing restricting HLA allele; format: cell-based, human; conditions: HLA allele A0201; 50:1 E:T
Excerpt: as §1
PHA blasts were not available from every patient that provided leukemia blasts for this study.

With `CC(C)C[C@H](NC(=O)[C@H](Cc1c[nH]cn1)NC(=O)[C@H](CC(=O)O)NC(=O)[C@H](CO)NC(=O)[C@H](CCCNC(=N)N)NC(=O)[C@H](CO)NC(=O)[C@H](Cc1ccccc1)NC(=O)[C@H](CCCCN)NC(=O)[C@@H](N)CCCNC(=N)N)C(=O)O` [SEQ ID NO: 181] (H-RKFSRSDHL-OH; N-terminus and C-terminus assumed) the “Cytotoxic CTL response, % vs WT1- autologous APC” value ([1]; HLA allele A0201) was 3%, the “Cytotoxic CTL response, % vs WT1 peptide loaded autologous APC” value ([2]; HLA allele A0201) was 40% and the “Cytotoxic CTL response, % vs WT1- allo APC with restricting HLA allele” value ([3]; HLA allele A0201) was 1%. The “Cytotoxic CTL response, % vs WT1+ allo APC with restricting HLA allele loaded with WT1 peptide” value (“Cytotoxic CTL response, % … with WT1 peptide” below) ([4]; HLA allele A0201) was 27%.

`CC[C@H](C)[C@H](NC(=O)[C@H](C)N)C(=O)N[C@@H](CC(C)C)C(=O)N[C@@H](CC(=O)O)C(=O)N[C@@H](Cc1ccccc1)C(=O)N[C@@H](CC(C)C)C(=O)N[C@@H](CC(C)C)C(=O)N[C@@H](CC(C)C)C(=O)N[C@@H](CCC(N)=O)C(=O)O` [SEQ ID NO: 147] (H-AILDFLLLQ-OH; N-terminus and C-terminus assumed) was tested, and the “Cytotoxic CTL response, % vs WT1- autologous APC” value ([1]; HLA allele A0201) was 0%, the “Cytotoxic CTL response, % vs WT1 peptide loaded autologous APC” value ([2]; HLA allele A0201) was 18% and the “Cytotoxic CTL response, % vs WT1- leukemia” value [5] was 3%. The “Cytotoxic CTL response, % vs WT1+ leukemia” value [6] was 19%, the “Cytotoxic CTL response, % vs WT1- allo APC with restricting HLA allele” value ([3]; HLA allele A0201) was 3% and the “Cytotoxic CTL response, % … with WT1 peptide” value ([4]; HLA allele A0201) was 17%.

In the case of `CC(C)C[C@H](NC(=O)[C@H](CS)NC(=O)CNC(=O)[C@@H]1CCCN1)C(=O)N[C@@H](CCC(N)=O)C(=O)N[C@@H](CCC(N)=O)C(=O)N1CCC[C@H]1C(=O)N[C@@H](CCC(=O)O)C(=O)N[C@@H](CCC(N)=O)C(=O)O` [SEQ ID NO: 148] (H-PGCLQQPEQ-OH; N-terminus and C-terminus assumed), the “Cytotoxic CTL response, % vs WT1- autologous APC” value ([1]; HLA allele A0201) is reported as 6%, the “Cytotoxic CTL response, % vs WT1- autologous APC” value ([1]; HLA allele B4701) is reported as 6% and the “Cytotoxic CTL response, % vs WT1 peptide loaded autologous APC” value ([2]; HLA allele A0201) is reported as 54%. For the same compound, the “Cytotoxic CTL response, % vs WT1 peptide loaded autologous APC” value ([2]; HLA allele B4701) was 54%, the “Cytotoxic CTL response, % vs WT1- leukemia” value [5] was 5% and the “Cytotoxic CTL response, % vs WT1+ leukemia” value [6] was 19%. For the same compound, the “Cytotoxic CTL response, % vs WT1- allo APC with restricting HLA allele” value ([3]; HLA allele A0201) was 7%, the “Cytotoxic CTL response, % vs WT1- allo APC with restricting HLA allele” value ([3]; HLA allele B4701) was 1% and the “Cytotoxic CTL response, % … with WT1 peptide” value ([4]; HLA allele A0201) was 27%. For the same compound, the “Cytotoxic CTL response, % … with WT1 peptide” value ([4]; HLA allele B4701) was 25%.

In the case of `C[C@H](NC(=O)[C@H](C)NC(=O)[C@H](Cc1c[nH]cn1)NC(=O)[C@@H](N)Cc1c[nH]cn1)C(=O)N[C@@H](CCC(N)=O)C(=O)N[C@@H](Cc1ccccc1)C(=O)N1CCC[C@H]1C(=O)N[C@@H](CC(N)=O)C(=O)N[C@@H](Cc1c[nH]cn1)C(=O)O` [SEQ ID NO: 164] (H-HHAAQFPNH-OH; N-terminus and C-terminus assumed), the “Cytotoxic CTL response, % vs WT1- autologous APC” value ([1]; HLA allele B3801) is reported as 0%, the “Cytotoxic CTL response, % vs WT1 peptide loaded autologous APC” value ([2]; HLA allele B3801) is reported as 26% and the “Cytotoxic CTL response, % vs WT1- allo APC with restricting HLA allele” value ([3]; HLA allele B3801) is reported as 1%. For the same compound, the “Cytotoxic CTL response, % … with WT1 peptide” value ([4]; HLA allele B3801) was 17%.

`CC(C)C[C@H](NC(=O)[C@H](CO)NC(=O)[C@@H]1CCCN1C(=O)[C@@H]1CCCN1C(=O)[C@H](Cc1ccccc1)NC(=O)[C@@H](N)Cc1c[nH]cn1)C(=O)N1CCC[C@H]1C(=O)N1CCC[C@H]1C(=O)N[C@H](C(=O)O)[C@@H](C)O` [SEQ ID NO: 145] (H-HFPPSLPPT-OH; N-terminus and C-terminus assumed) was tested, and the “Cytotoxic CTL response, % vs WT1- autologous APC” value ([1]; HLA allele A3101) was 0%, the “Cytotoxic CTL response, % vs WT1 peptide loaded autologous APC” value ([2]; HLA allele A3101) was 42% and the “Cytotoxic CTL response, % vs WT1- allo APC with restricting HLA allele” value ([3]; HLA allele A3101) was 0%. For the same compound, the “Cytotoxic CTL response, % … with WT1 peptide” value ([4]; HLA allele A3101) was 27%.

In the case of `CC(C)C[C@H](NC(=O)[C@@H](NC(=O)[C@@H]1CCCN1C(=O)[C@H](C)NC(=O)[C@H](Cc1c[nH]c2ccccc12)NC(=O)[C@H](CCC(N)=O)NC(=O)[C@H](C)NC(=O)[C@H](C)NC(=O)CN)C(C)C)C(=O)O` [SEQ ID NO: 154] (H-GAAQWAPVL-OH; N-terminus and C-terminus assumed), the “Cytotoxic CTL response, % vs WT1- autologous APC” value ([1]; HLA allele B3901) is reported as 2%, the “Cytotoxic CTL response, % vs WT1 peptide loaded autologous APC” value ([2]; HLA allele B3901) is reported as 31% and the “Cytotoxic CTL response, % vs WT1- allo APC with restricting HLA allele” value ([3]; HLA allele B3901) is reported as 0%. For the same compound, the “Cytotoxic CTL response, % … with WT1 peptide” value ([4]; HLA allele B3901) was 19%.

With `CC(C)C[C@H](NC(=O)[C@H](CS)NC(=O)CNC(=O)[C@@H]1CCCN1)C(=O)N[C@@H](CCC(N)=O)C(=O)N[C@@H](CCC(N)=O)C(=O)N1CCC[C@H]1C(=O)N[C@@H](CCC(=O)O)C(=O)N[C@@H](CCC(N)=O)C(=O)N[C@@H](CCC(N)=O)C(=O)NCC(=O)O` [SEQ ID NO: 149] (H-PGCLQQPEQQG-OH; N-terminus and C-terminus assumed) the “Cytotoxic CTL response, % vs WT1- autologous APC” value ([1]; HLA allele DRB10101) was 6%, the “Cytotoxic CTL response, % vs WT1 peptide loaded autologous APC” value ([2]; HLA allele DRB10101) was 54% and the “Cytotoxic CTL response, % vs WT1- allo APC with restricting HLA allele” value ([3]; HLA allele DRB10101) was 1%. The “Cytotoxic CTL response, % … with WT1 peptide” value ([4]; HLA allele DRB10101) was 25%.
